From PMC12797170, “Potent Competitive Inhibitors of Ecto-5′-nucleotidase (CD73) based on 6‑(Het)aryl-7-deazapurine Ribonucleoside 5′‑O‑Bisphosphonates” (ACS Pharmacology & Translational Science, 2025)
≈ marks a conversion by molar mass, not a printed value.

What was measured:
[1] = in vitro; settings: mouse, plasma
[2] = Plasma protein binding, mouse plasma; assay type: in vitro ADME; settings: mouse, plasma, mouse plasma protein binding; read-out: PPB (m) (converted)
Protocol: (§1) Plasma protein binding of the investigated compounds was determined using equilibrium dialysis in single-use Rapid Equilibrium Dialysis devices with an 8 kDa molecular weight cutoff (Thermo Fisher Scientific), following the manufacturer’s protocol. In brief, 50 μL of undiluted human plasma (Biowest), spiked with the test compound at a final concentration of 100 μM, was added to the sample chamber, while 300 μL of phosphate-buffered saline (PBS) was placed in the buffer chamber. Devices were incubated for 4 h at 37 °C with gentle shaking.
(§2) After dialysis, 7.5 μL aliquots from both the plasma and buffer chambers were transferred directly into wells of a 384-well plate. To equalize the matrices for downstream processing, 7.5 μL of PBS was added to each plasma aliquot, and 7.5 μL of plasma was added to each buffer aliquot. Proteins were precipitated by adding four volumes of ice-cold methanol to each well, followed by thorough mixing and incubation at – 20 °C for 30 min. Plates were then stored overnight at 8 °C. Prior to analysis, the plate was centrifuged at 2,000 × g for 20 min at 8 °C. […] The fraction of unbound compound was calculated using the following equations: %Free=c(bufferchamber)/c(plasmachamber)*100% %Bound=100%−%Free

[3] = test system: HL-60; experiment: In vitro cytotoxic activity; assay type: cell-based; settings: Homo sapiens
Protocol: (§3) All the compounds were also tested for their in vitro cytotoxic activity on a small panel of four cancer cell lines (CCRF-CEM, HepG2, HeLa S3, HL-60) and nonmalignant human dermal fibroblasts (NHDF).

[4] = test system: HepG2; experiment: In vitro cytotoxic activity; assay type: cell-based; settings: Homo sapiens
Protocol: as §3

[5] = test system: nonmalignant human dermal fibroblasts (NHDF); experiment: In vitro cytotoxic activity; assay type: cell-based
Protocol: as §3

[6] = test system: CCRF-CEM; experiment: In vitro cytotoxic activity; assay type: cell-based; settings: Homo sapiens
Protocol: as §3

[7] = test system: HeLa S3; experiment: In vitro cytotoxic activity; assay type: cell-based; settings: Homo sapiens
Protocol: as §3

[8] = Kinetic solubility in PBS; assay type: physicochemical; settings: phosphate-buffered saline, pH 7.4, aqueous buffer, kinetic from dmso stock
Protocol: Test compounds were prepared as 10 mM stock solutions in DMSO and diluted in phosphate-buffered saline (PBS, pH 7.4) to a 100 μM solution, which was then aliquoted in duplicate. The duplicate samples were incubated in Multiscreen PCF Filter Plates (Merck Millipore) with sealed bottom at room temperature on a shaker for 2 h to allow equilibration. Following incubation, the samples were centrifuged into nonsterile, flat-bottom 96-well plates at 2,200 RCF for 12 min. Supernatants were then diluted 1:99 in a solution of 50% acetonitrile containing 0.1% DMSO. The diluted samples were transferred to 384-well Echo plates, which contained prespotted calibration standards prepared by Echo transfer of 10 mM and 1 mM DMSO stock solutions, resulting in calibration points ranging from 0.05 to 4 μM. Samples and standards were subsequently analyzed by Echo-MS.

[9] = Plasma protein binding, equilibrium dialysis, human plasma; assay type: in vitro ADME; settings: undiluted plasma
Protocol: as §1, §2

[10] = in vitro; settings: human, plasma
[11] = Microsomal stability assay, human liver microsomes; assay type: in vitro ADME; settings: for Mics (hu) comp remaining 60 min: 10 μM; for microsomal CLint at 10 µM: pooled liver microsomes, pH 7.4, read-out: Mics (hu) CLint
[12] = Microsomal stability assay, mouse liver microsomes; assay type: in vitro ADME; settings: for Mics (m) comp remaining 60 min: 10 μM; for microsomal CLint at 10 µM: pooled liver microsomes, pH 7.4, read-out: Mics (m) CLint
[13] = In vivo pharmacokinetic study, intravenous; design: species or system male CD-1 mice; settings: plasma, 1 mg/kg, intravenous
Protocol: The pharmacokinetic study was performed by Bienta (Enamine Biology Services) using male CD-1 mice (3 animals, 9 weeks old, body weight ranging from 29.2 to 33.7 g) following intravenous administration. Levels of the test compound were determined by LC-MS/MS in blood plasma over time (seven sampling time points: 5, 15, 30, 60, 120, 240, and 480 min) after a single dose.
Animal treatment and samples preparation were conducted by the Animal Laboratory personnel at Enamine/Bienta.

[14] = target: T1, recombinant human CD73 (hCD73) (Homo sapiens, UniProt P21589); experiment: CD73 activity assay on recombinant human CD73; assay type: biochemical; settings: ΔGexp = RT ln Ki
T1 sequence (P21589 27-574): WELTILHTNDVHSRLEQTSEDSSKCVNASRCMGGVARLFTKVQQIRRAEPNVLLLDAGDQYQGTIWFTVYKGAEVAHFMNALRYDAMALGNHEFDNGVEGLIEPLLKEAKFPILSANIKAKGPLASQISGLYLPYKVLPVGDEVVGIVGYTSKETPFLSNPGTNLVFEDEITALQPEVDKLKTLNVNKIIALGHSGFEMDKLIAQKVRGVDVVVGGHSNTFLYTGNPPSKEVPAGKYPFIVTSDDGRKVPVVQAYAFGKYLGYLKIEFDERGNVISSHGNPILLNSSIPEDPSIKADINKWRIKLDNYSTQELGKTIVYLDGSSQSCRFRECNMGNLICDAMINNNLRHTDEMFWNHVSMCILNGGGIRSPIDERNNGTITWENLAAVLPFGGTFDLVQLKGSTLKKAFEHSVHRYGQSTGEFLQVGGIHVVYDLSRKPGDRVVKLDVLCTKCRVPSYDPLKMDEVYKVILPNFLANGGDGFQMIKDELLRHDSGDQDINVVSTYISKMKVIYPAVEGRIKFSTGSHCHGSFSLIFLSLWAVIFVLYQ

[15] = human plasma protein binding, read-out: PPB (hu) (converted)

SMILES	half-life at 10 µM [1]	fraction unbound at 4 h, 100 µM [2]	IC50 [3]	IC50 [4]	IC50 [5]	IC50 [6]	IC50 [7]	solubility at 2 h [8]	fraction unbound at 4 h, 100 µM [9, 15]	half-life at 10 µM [10]	Mics (hu) comp remaining 60 min [11]	microsomal CLint at 10 µM [11]	Mics (m) comp remaining 60 min [12]	microsomal CLint at 10 µM [12]	half-life ([13]; male, CD-1, mouse, iv, footnote: t1/2 stability in plasma, text: half-life in mouse PK)	clearance ([13]; mouse, male CD-1 mice, single dose, read-out: Cl (obs), observed clearance)	dG_exp, experimental binding free energy [14]	fraction unbound at 4 h, 100 µM ([9]; Table 6, human plasma, read-out: fup, fraction unbound in human plasma)
O=P(O)(O)CP(=O)(O)OC[C@H]1O[C@@H](n2ccc3c(-c4ccc(-c5ccccc5)cc4)ncnc32)[C@H](O)[C@@H]1O [4A.9]	> 2 h	0.144	> 10 µM	> 10 µM	> 10 µM	> 10 µM	> 10 µM	64 µM (≈ 35.9 µg/mL)	0.011	> 2 h								
O=P(O)(O)CP(=O)(O)OC[C@H]1O[C@@H](n2ccc3c(-c4ccncc4)ncnc32)[C@H](O)[C@@H]1O [4A.16]	> 2 h	0.833	> 10 µM	> 10 µM	> 10 µM	> 10 µM	> 10 µM	79 µM (≈ 38.4 µg/mL)	0.304	> 2 h	94%	3 µL/min/mg	80%	9 µL/min/mg				
N#Cc1ccc(-c2nc(Cl)nc3c2ccn3[C@@H]2O[C@H](COP(=O)(O)CP(=O)(O)O)[C@@H](O)[C@H]2O)c2ccccc12 [7B.34]	> 2 h	0.339	> 10 µM	> 10 µM	> 10 µM	> 10 µM	> 10 µM	> 100 µM	≤ 0.01	> 2 h	97%	< 2 µL/min/mg		< 2 µL/min/mg				
O=P(O)(O)CP(=O)(O)OC[C@H]1O[C@@H](n2cnc3c(-c4cccc5ccccc45)ncnc32)[C@H](O)[C@@H]1O [31A.6, [(5-{[6-(Naphth-1-yl)-9H-purin-9-yl]-β-D-ribofuranosyl}oxy)phosphonomethyl]phosphonic Acid]	> 2 h	0.628	> 10 µM	> 10 µM	> 10 µM	> 10 µM	> 10 µM	87 µM (≈ 46.7 µg/mL)	0.093	> 2 h	121%	< 1 µL/min/mg	108%	< 1 µL/min/mg				
O=P(O)(O)CP(=O)(O)OC[C@H]1O[C@@H](n2cnc3c(-c4ccc5ccccc5c4)ncnc32)[C@H](O)[C@@H]1O [31A.7]	> 2 h	0.224	7.6 µM	4.8 µM	3.7 µM	> 10 µM	> 10 µM	86 µM (≈ 46.1 µg/mL)	≤ 0.01	> 2 h	106%	< 1 µL/min/mg	87%	6 µL/min/mg				
O=P(O)(O)CP(=O)(O)OC[C@H]1O[C@@H](n2ccc3c(-c4ccccc4)ncnc32)[C@@H](F)[C@@H]1O [34A.5, [(5-{[4-Phenyl-7H-pyrrolo[2,3-d]pyrimidin-7-yl]-2-deoxy-2-fluoro-β-D-arabinosyl}oxy)phosphonomethyl]phosphonic Acid]	> 2 h	0.2						245 µM (≈ 119 µg/mL)		> 2 h	93%		97%		5.1 h	3.3 mL/min/kg	–11.2 kcal/mol	0.022
